Where “and” joins values, the source holds several entries; their conditions need not be identical. Equal values may be shown once.
Legend:
[1] = 101.33 kPa, Liquid, Vibrating tube method
[2] = xn = mol fraction of the nth substance listed; settings: 100 kPa, Liquid, Vibrating tube method
[3] = excess molar enthalpy (molar enthalpy of mixing); xn = mol fraction of the nth substance listed; settings: 100 kPa, Liquid, Flow calorimetry

CCCC(C)=O [pentan-2-one]
[1]
Settings | mass density [kg/m3]
288.15 K | 811.06
298.15 K | 801.41
308.15 K | 791.66
318.15 K | 781.83

CCC(=O)CC [pentan-3-one]
[1]
Settings | mass density [kg/m3]
288.15 K | 818.9
298.15 K | 809.16
308.15 K | 799.32
318.15 K | 789.41

CC(=O)CC(C)C [4-methylpentan-2-one]
[1]
Settings | mass density [kg/m3]
288.15 K | 805.12
298.15 K | 795.98
308.15 K | 786.75
318.15 K | 777.46

CCCCC(C)=O [2-hexanone]
[1]
Settings | mass density [kg/m3]
288.15 K | 815.72
298.15 K | 806.7
308.15 K | 797.6
318.15 K | 788.45

CC(=O)C(C)C [3-methyl-2-butanone]
[1]
Settings | mass density [kg/m3]
288.15 K | 808.3
298.15 K | 798.51
308.15 K | 788.6
318.15 K | 778.62

CCCCC(C)=O [2-hexanone] + O
Settings | excess molar enthalpy, [3] | mass density, [2]
288.15 K, x1 = 0.00087 | -0.00256 kcal/mol and -0.00254 kcal/mol | 998.466 kg/m3 and 998.439 kg/m3
288.15 K, x1 = 0.00116 | -0.00343 kcal/mol and -0.00339 kcal/mol | 998.248 kg/m3 and 998.255 kg/m3
288.15 K, x1 = 0.00145 | -0.00423 kcal/mol and -0.00421 kcal/mol | 998.054 kg/m3
288.15 K, x1 = 0.001739 | -0.00503 kcal/mol and -0.00504 kcal/mol | 997.852 kg/m3 and 997.853 kg/m3
298.15 K, x1 = 0.000869 | -0.00197 kcal/mol | 996.347 kg/m3
298.15 K, x1 = 0.00087 | -0.00198 kcal/mol | 996.364 kg/m3
298.15 K, x1 = 0.001159 | -0.00264 kcal/mol | 996.128 kg/m3
298.15 K, x1 = 0.00116 | -0.00262 kcal/mol | 996.137 kg/m3
298.15 K, x1 = 0.001448 | -0.00321 kcal/mol | 995.926 kg/m3
298.15 K, x1 = 0.00145 | -0.00329 kcal/mol | 995.903 kg/m3
298.15 K, x1 = 0.001737 | -0.00394 kcal/mol | 995.664 kg/m3
298.15 K, x1 = 0.00174 | -0.0039 kcal/mol | 995.681 kg/m3
308.15 K, x1 = 0.000869 | -0.00138 kcal/mol | 993.309 kg/m3 and 993.32 kg/m3
308.15 K, x1 = 0.001158 | -0.0018 kcal/mol | 993.074 kg/m3
308.15 K, x1 = 0.001159 | -0.00181 kcal/mol | 993.08 kg/m3
308.15 K, x1 = 0.001447 | -0.00226 kcal/mol | 992.84 kg/m3
308.15 K, x1 = 0.001448 | -0.00224 kcal/mol | 992.834 kg/m3
308.15 K, x1 = 0.001735 | -0.00273 kcal/mol | 992.573 kg/m3
308.15 K, x1 = 0.001737 | -0.00273 kcal/mol | 992.571 kg/m3
318.15 K, x1 = 0.000868 | -0.000825 kcal/mol | 989.45 kg/m3
318.15 K, x1 = 0.000869 | -0.000817 kcal/mol | 989.446 kg/m3
318.15 K, x1 = 0.00087 | -0.000813 kcal/mol | 989.455 kg/m3
318.15 K, x1 = 0.001158 | -0.0011 kcal/mol | 989.173 kg/m3
318.15 K, x1 = 0.001159 | -0.00111 kcal/mol and -0.00109 kcal/mol | 989.168 kg/m3 and 989.197 kg/m3
318.15 K, x1 = 0.001447 | -0.00133 kcal/mol | 988.934 kg/m3
318.15 K, x1 = 0.001448 | -0.00135 kcal/mol and -0.00132 kcal/mol | 988.931 kg/m3 and 988.956 kg/m3
318.15 K, x1 = 0.001736 | -0.00161 kcal/mol | 988.678 kg/m3
318.15 K, x1 = 0.001737 | -0.00162 kcal/mol and -0.00165 kcal/mol | 988.651 kg/m3 and 988.636 kg/m3

Reference: the NIST ThermoML archive (doi:10.1021/acs.jced.7b00035)
